# PubChem BioAssay AID493102 (Broad Institute, 2011)
# System: SK-MEL-5 TRPM1-promoter luciferase reporter, 24 h
# Test: TRPM1 promoter luciferase signal decrease, dose response, MITF inhibitor project, cell-based, SK-MEL-5, cherry-picked, set 4 (AID 493102);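 also: actives lower the luciferase signal so the potency reflects inhibition of reporter expression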
row,SMILES,AC50 [µM]
1,CC(C)[C@H](NC(=O)OC(C)(C)C)c1nnc(S(=O)(=O)Cc2c(F)cccc2Cl)o1,11.6
2,O=C1NC(=S)NC(=O)C1=Cc1cccn1-c1ccc(O)cc1,11.4
3,Cc1ccc(C(=O)c2cccc(N)c2)cc1C,3.62
4,COC1=C(Nc2ccc(O)cc2)C(=O)c2ccccc2C1=O,5.14
5,Cc1ccc(NC(=O)C2CCN(S(=O)(=O)c3c(C)noc3/C=C/c3ccco3)CC2)nc1,5.56
6,Cc1ccc(C#CC[N+]2(CC#Cc3ccc(C)cc3)CCCCC2)cc1,3.95
7,C=CCN1C(=O)/C(=C/c2cc(C)n(-c3cccnc3)c2C)C(=O)NC1=S,16.8
8,O=C(O)c1ccc(C(=O)Nc2ccc(F)cc2)cc1,19.8
9,CC(C)CC(=O)NC(c1cccs1)c1ccc2cccnc2c1O (centres undefined),3.71
10,Cc1cc(Sc2ncnc(N)c2[N+](=O)[O-])ncn1,7.61
11,O=C1CCC2S/C(=C/Nc3ccc(C(F)(F)F)cc3)C(=O)N12 (centres undefined),3.57
12,COc1cc(NC(=O)COc2cc(O)c3c(c2)OC(C)(C)CC3=O)cc(OC)c1OC,5.36
13,Cn1c(SC2=CS(=O)(=O)c3ccccc32)nc2ccccc21,6.72
14,Cc1ccc(C(=O)c2no[n+]([O-])c2C(=O)c2ccc(C)cc2)cc1,16.7
15,Cc1[nH]c2ccccc2c1C(=O)CCl,6.78
16,CC(=O)NC1=C(N(C)C2CCS(=O)(=O)C2)C(=O)c2ccccc2C1=O (centres undefined),21.2
17,O=C(Nc1ccc(Cl)c(S(=O)(=O)N2CCOCC2)c1)c1ccc(OCC2CCCO2)cc1 (centres undefined),3.26
18,COc1ccc(COC(=O)c2cc([N+](=O)[O-])ccc2N2CCOCC2)cc1F,0.023
19,O=C(N/N=C/c1ccc([N+](=O)[O-])o1)c1cc2ccccc2o1,5.99
20,CC1=NNC(=O)/C1=C\c1cn(-c2ccccc2)nc1-c1ccc(F)cc1,6.52
21,Cc1ccc(NC(=O)CN(C)C(=O)Cn2ncc(Cl)c(Cl)c2=O)cc1,9.16
22,O=C(C[n+]1cccc2ccccc21)c1ccc([N+](=O)[O-])cc1,6.21
23,O=C(Nc1ccc2nc3n(c(=O)c2c1)CCCCC3)c1cc([N+](=O)[O-])ccc1F,10.7
24,Cc1ccc(NC(=O)CCC(=O)N/N=C/c2ccc([N+](=O)[O-])o2)cc1C,6.25
25,COc1cccc(NC(=O)c2cc3c(=O)n4ccccc4nc3n(CC(C)C)c2=N)c1,7.02
26,COC(=O)C1=C(C)N(Cc2ccccc2)C(=NCCc2cccnc2)N[C@H]1c1ccc(Br)cc1,17.8
27,CC1CCC(C(C)C)C(OC(=O)C[n+]2cc(-c3ccc(Cl)cc3)n3c2CCCCC3)C1 (centres undefined),6.97

row,SMILES,AC50 [µM]
1,COc1cccc(-c2nnc3n2N=C(C(C)(C)C)CS3)c1,4.82
2,CCN1CCCC1CNC(=O)c1ccc2c(c1)NC(=O)/C(=C\c1ccc(C)cc1)S2 (centres undefined),18.9
3,CCN1CCN(/C=N/c2nc3c(s2)CCCC3)CC1,6.42
4,CCCCCCN1C=CC(=C2C(=O)c3ccccc3C2=O)C=C1,3.86
5,N=c1n(CCN2CCCC2)c2ccccc2n1CC(O)c1ccc(Cl)c(Cl)c1 (centres undefined),11.8
6,CC(C)c1ccc(N2C(=O)NC(=O)/C(=C/C=C/c3ccco3)C2=O)cc1,5.89
7,CC1CCC(C(C)C)C(OC(=O)Cn2c(-c3ccc(Cl)cc3)[n+](C)c3ccccc32)C1 (centres undefined),6.29
8,CN(C)c1nc(C=C(C#N)C#N)c(Cl)n1-c1ccc(F)cc1,3.92
9,O=c1c(Cl)c(Cl)cnn1-c1ccccc1,9.54
10,C[C@H]1CCC[C@]2(C)C[C@H]3OC(=O)C(CN4CCCCCC4)[C@H]3C=C12 (some centres undefined),13.9
11,COC(=O)c1ccc(-n2c(C)cc(C(=O)CCl)c2C)cc1,7.46
12,CCCN1CCC(NCc2cn(C)nc2-c2ccc(Oc3ccccc3)cc2)CC1,8.35
13,CC(=O)Nc1ccc(NC(=O)c2nc(S(=O)(=O)Cc3ccccc3)ncc2Cl)cc1,12.8
14,CN(C(=O)/C=C/c1ccc([N+](=O)[O-])s1)c1ccccc1,9.11
15,Cc1c(NC(=O)C(C)OC(=O)c2ccc([N+](=O)[O-])s2)c(=O)n(-c2ccccc2)n1C (centres undefined),34.1
16,C=CCOc1ccc(/C=C2\SC(=S)N(CCC(=O)O)C2=O)cc1,0.337
17,Cc1cc(-n2c(C)cc(C(=O)CCl)c2C)no1,5.5
18,COc1ccc(N(C(=O)CCl)C(C(=O)NC2CCCCC2)c2cccnc2)cc1 (centres undefined),5.87
19,COc1ccc(NS(=O)(=O)c2cc(NC(=O)CNC(=O)c3cccc(OC)c3)ccc2C)cc1,11
20,COc1ccc(-c2cc(-c3ccccc3)[n+](C)c(-c3ccccc3)c2)cc1,3.2
21,O=C1CN(C(=O)Cn2ncc(Cl)c(Cl)c2=O)c2ccccc2N1,8.67
22,O=C(c1ccc(F)cc1)C(CN1CCOCC1)c1ccccc1 (centres undefined),5.96
23,O=C(Nc1nc(-c2ccccn2)cs1)c1ccc([N+](=O)[O-])o1,10.8
24,Cc1ccc(C(O)(c2ccc(C)c(C)c2)C2CN3CCC2CC3)cc1C (centres undefined),10.1
25,COc1ccc(O)c(/C=N/NC(=O)c2ccc(CSc3nc(C)cc(C)n3)cc2)c1,9.31
26,CCOc1ccc(NC(=O)CCC(=O)N/N=C/c2ccc([N+](=O)[O-])s2)cc1,6.21
27,O=C1NC2c3c(I)sc(I)c3C(=O)C2O1 (centres undefined),15.5
